# Measurements as given in paper PMC4468408 (ACS Medicinal Chemistry Letters, 2015).
# Where two headings read alike, the source gives them in different places.
# Legend:
# [1] = brain total exposure in nude mice; conditions: for AUC brain (AUC0–8h) / brain Cmax: sodium salts PO 30 mg/kg
# [2] = oral dosing of SD rats: exposure, GABAA related effects, toxicity; format: in vivo, SD rat; conditions: for effects attributable to GABAA binding (CNS effects): SD rats dosed orally; for toxicities observed at the maximum tolerated dose: SD rats, orally for seven consecutive days
# P-gp = P-gp substrate test in transfected MDCK cells; format: in vitro ADME
# in vitro metabolism = format: in vitro ADME
# major human CYP isozymes = assay: CYP inhibition; format: in vitro ADME
# human tumor xenografts = conditions: cited from earlier work
# [3] = pharmacokinetics in Sprague-Dawley rat; format: in vivo; conditions: IV 1 mg/kg, 10% 2-HP-β-CD
# [4] = Phase I; cited from earlier work
# [5] = stability in human S9 fraction; format: in vitro ADME
Compound,AUC brain (AUC0–8h) [1] [ng·h/mL],brain Cmax [1] [ng/mL],effects attributable to GABAA binding (CNS effects) [2],toxicities observed at the maximum tolerated dose [2],substrate of P-gp (P-gp),in vitro metabolism (in vitro metabolism),CYP inhibition (major human CYP isozymes; concentrations up to 100 μM),tumor growth inhibition (human tumor xenografts; multiple xenograft efficacy models in immunocompromised mice),CL [3] [mL min^–1 kg^–1],incidence of somnolence [4],IC50 (major human CYP isozymes; human) [µM],tumor growth inhibition (human tumor xenografts; multiple human tumor xenograft models),stability in human S9 fraction [5],brain AUC reduction ([1]; compared with MLN8054) [fold]
O=C(O)c1ccc(Nc2ncc3c(n2)-c2ccc(Cl)cc2C(c2c(F)cccc2F)=NC3)cc1 [MLN8054 (8)],12500,2600,reversible central nervous system (CNS) effects,myelosuppression and mucositis,not a substrate of P-gp,predominantly through CYP1A2 and 3A4,no CYP inhibition is observed,"Significant tumor growth inhibition, with no overt toxicity",,,,,,
COc1cc(Nc2ncc3c(n2)-c2ccc(Cl)cc2C(c2c(F)cccc2OC)=NC3)ccc1C(=O)O [alisertib (10)],2000,420,No effects attributable to GABAA binding were observed,myelosuppression and mucositis,not a substrate of P-gp,low and is mediated through multiple CYP isoforms and UGTs,,,10.4,not dose limiting,> 100,significant tumor growth inhibition,,
O=C(O)c1ccc(Nc2ncc3c(n2)-c2ccc(Cl)cc2C(c2ccccc2F)=NC3)cc1 [compound 7],,,,,,,,,,,,,stable in human S9 fraction,
COc1cccc(F)c1C1=NCc2cnc(Nc3ccc(C(=O)O)cc3)nc2-c2ccc(Cl)cc21 [compound 9],3500,930,No effects attributable to GABAA binding were observed,,,,,,,,,,,3
